Results taken from ChEMBL document CHEMBL2074490, “Transport and uptake of nateglinide in Caco-2 cells and its inhibitory effect on human monocarboxylate transporter MCT1” (Br J Pharmacol, 2002).

Molecular target: Monocarboxylate transporter 1 (Homo sapiens) (UniProt P53985)
Test: TP_TRANSPORTER: uptake in Xenopus laevis oocytes
Conditions: Oocyte

Monocarboxylate transporter 1 (Homo sapiens), sequence (P53985 whole entry, looked up): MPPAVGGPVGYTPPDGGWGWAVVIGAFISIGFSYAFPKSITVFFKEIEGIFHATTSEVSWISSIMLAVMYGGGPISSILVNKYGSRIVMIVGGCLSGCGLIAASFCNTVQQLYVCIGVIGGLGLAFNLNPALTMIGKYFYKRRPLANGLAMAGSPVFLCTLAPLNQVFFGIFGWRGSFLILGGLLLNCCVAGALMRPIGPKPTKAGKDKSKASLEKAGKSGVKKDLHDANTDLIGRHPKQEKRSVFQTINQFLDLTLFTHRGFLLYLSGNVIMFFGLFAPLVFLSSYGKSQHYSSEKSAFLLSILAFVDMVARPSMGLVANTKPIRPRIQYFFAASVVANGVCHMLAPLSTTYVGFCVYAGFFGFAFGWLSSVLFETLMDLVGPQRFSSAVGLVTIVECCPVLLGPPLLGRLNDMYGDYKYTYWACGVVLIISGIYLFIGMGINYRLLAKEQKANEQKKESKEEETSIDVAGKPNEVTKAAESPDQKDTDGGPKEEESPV

Compound: CC(C)[C@H]1CC[C@H](C(=O)N[C@H](Cc2ccccc2)C(=O)O)CC1
- Activity: is not a substrate [-]
